# From PubChem BioAssay (NCI)
#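 The concentration for 50% growth inhibition is given as GI50. TGI marks complete inhibition of growth.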
# Experiments:
# Assay in all cases: growth of human tumour cells (NCI), 384-well format
# SK-MEL-5 melanoma = test system: SK-MEL-5 melanoma
# SK-MEL-2 melanoma = test system: SK-MEL-2 melanoma
# UO-31 renal = test system: UO-31 renal
# A549 NSCLC = test system: A549 NSCLC
# SF-539 CNS = test system: SF-539 CNS
# MDA-MB-435 melanoma = test system: MDA-MB-435 melanoma
# NCI-H460 NSCLC = test system: NCI-H460 NSCLC
# TK-10 renal = test system: TK-10 renal
# HL-60(TB) leukemia = test system: HL-60(TB) leukemia
# SW-620 colon = test system: SW-620 colon
# NCI-H522 lung = test system: NCI-H522 lung
# HCT-116 colon = test system: HCT-116 colon
# NCI/ADR-RES ovarian = test system: NCI/ADR-RES ovarian
# UACC-62 melanoma = test system: UACC-62 melanoma
# K-562 leukemia = test system: K-562 leukemia
# RXF 393 renal = test system: RXF 393 renal
# BT-549 breast = test system: BT-549 breast
# OVCAR-5 ovarian = test system: OVCAR-5 ovarian
# CAKI-1 renal = test system: CAKI-1 renal
# HCC-2998 colon = test system: HCC-2998 colon
# MALME-3M melanoma = test system: MALME-3M melanoma
# SK-MEL-28 melanoma = test system: SK-MEL-28 melanoma
# M14 melanoma = test system: M14 melanoma
# IGROV1 ovarian = test system: IGROV1 ovarian
# MDA-MB-468 breast = test system: MDA-MB-468 breast
# NCI-H226 lung = test system: NCI-H226 lung
# HOP-62 NSCLC = test system: HOP-62 NSCLC
# OVCAR-3 ovarian = test system: OVCAR-3 ovarian
# SR leukemia = test system: SR leukemia
# SK-OV-3 ovarian = test system: SK-OV-3 ovarian
# PC-3 prostate = test system: PC-3 prostate
# SF-268 CNS = test system: SF-268 CNS
# U251 glioblastoma = test system: U251 glioblastoma
# HT29 colon = test system: HT29 colon
# NCI-H322M lung = test system: NCI-H322M lung
# SF-295 CNS = test system: SF-295 CNS
# HCT-15 colon = test system: HCT-15 colon
# CCRF-CEM leukemia = test system: CCRF-CEM leukemia
# SN12C renal = test system: SN12C renal
# UACC-257 melanoma = test system: UACC-257 melanoma
# DU-145 prostate = test system: DU-145 prostate
# COLO 205 colon = test system: COLO 205 colon
# MOLT-4 leukemia = test system: MOLT-4 leukemia
# OVCAR-4 ovarian = test system: OVCAR-4 ovarian
# ACHN renal = test system: ACHN renal
# OVCAR-8 ovarian = test system: OVCAR-8 ovarian
# MCF7 breast = test system: MCF7 breast
# T-47D breast = test system: T-47D breast
# A498 renal = test system: A498 renal
# LOX IMVI melanoma = test system: LOX IMVI melanoma
# MDA-MB-231 breast = test system: MDA-MB-231 breast
# KM12 colon = test system: KM12 colon
# RPMI-8226 leukemia = test system: RPMI-8226 leukemia
# HOP-92 NSCLC = test system: HOP-92 NSCLC
# NCI-H23 lung = test system: NCI-H23 lung
# SNB-19 CNS = test system: SNB-19 CNS
# 786-0 renal = test system: 786-0 renal
compound,measurement,setting,value
CO[C@@H]1/C=C\C=C(/C)C(=O)NC2=CC(=O)C(NCCN(C)C)=C(C[C@@H](C)C[C@@H](OC)[C@@H](O)[C@H](C)/C=C(\C)[C@H]1OC(N)=O)C2=O,GI50,SK-MEL-5 melanoma,< 10 nM
same,TGI,SK-MEL-5 melanoma,366 nM
same,GI50,SK-MEL-2 melanoma,< 10 nM
same,TGI,SK-MEL-2 melanoma,27.5 nM
same,GI50,UO-31 renal,368 nM
same,TGI,UO-31 renal,11700 nM
same,GI50,A549 NSCLC,< 10 nM
same,TGI,A549 NSCLC,673 nM
same,GI50,SF-539 CNS,< 10 nM
same,TGI,SF-539 CNS,24.6 nM
same,GI50,MDA-MB-435 melanoma,29.4 nM
same,TGI,MDA-MB-435 melanoma,1360 nM
same,GI50,NCI-H460 NSCLC,< 10 nM
same,TGI,NCI-H460 NSCLC,< 10 nM
same,GI50,TK-10 renal,77.4 nM
same,TGI,TK-10 renal,846 nM
same,GI50,HL-60(TB) leukemia,21 nM
same,TGI,HL-60(TB) leukemia,37.1 nM
same,GI50,SW-620 colon,< 10 nM
same,TGI,SW-620 colon,78.1 nM
same,GI50,NCI-H522 lung,13 nM
same,TGI,NCI-H522 lung,30.5 nM
same,GI50,HCT-116 colon,26.9 nM
same,TGI,HCT-116 colon,1340 nM
same,GI50,NCI/ADR-RES ovarian,2180 nM
same,TGI,NCI/ADR-RES ovarian,5060 nM
same,GI50,UACC-62 melanoma,< 10 nM
same,TGI,UACC-62 melanoma,48.4 nM
same,GI50,K-562 leukemia,24.1 nM
same,TGI,K-562 leukemia,85.3 nM
same,GI50,RXF 393 renal,< 10 nM
same,TGI,RXF 393 renal,16.9 nM
same,GI50,BT-549 breast,< 10 nM
same,TGI,BT-549 breast,< 10 nM
same,GI50,OVCAR-5 ovarian,36 nM
same,TGI,OVCAR-5 ovarian,173 nM
same,GI50,CAKI-1 renal,52.7 nM
same,TGI,CAKI-1 renal,12100 nM
same,GI50,HCC-2998 colon,< 10 nM
same,TGI,HCC-2998 colon,28.9 nM
same,GI50,MALME-3M melanoma,< 10 nM
same,TGI,MALME-3M melanoma,< 10 nM
same,GI50,SK-MEL-28 melanoma,12.5 nM
same,TGI,SK-MEL-28 melanoma,9830 nM
same,GI50,M14 melanoma,< 10 nM
same,TGI,M14 melanoma,38 nM
same,GI50,IGROV1 ovarian,22.6 nM
same,TGI,IGROV1 ovarian,63.1 nM
same,GI50,MDA-MB-468 breast,23.8 nM
same,TGI,MDA-MB-468 breast,54.3 nM
same,GI50,NCI-H226 lung,22.7 nM
same,TGI,NCI-H226 lung,84.5 nM
same,GI50,HOP-62 NSCLC,16.8 nM
same,TGI,HOP-62 NSCLC,66.1 nM
same,GI50,OVCAR-3 ovarian,23.3 nM
same,TGI,OVCAR-3 ovarian,76.3 nM
same,GI50,SR leukemia,12.7 nM
same,TGI,SR leukemia,27 nM
same,GI50,SK-OV-3 ovarian,12.5 nM
same,TGI,SK-OV-3 ovarian,90.6 nM
same,GI50,PC-3 prostate,19.9 nM
same,TGI,PC-3 prostate,53.1 nM
same,GI50,SF-268 CNS,24.8 nM
same,TGI,SF-268 CNS,2320 nM
same,GI50,U251 glioblastoma,< 10 nM
same,TGI,U251 glioblastoma,36.2 nM
same,GI50,HT29 colon,< 10 nM
same,TGI,HT29 colon,1080 nM
same,GI50,NCI-H322M lung,< 10 nM
same,TGI,NCI-H322M lung,3400 nM
same,GI50,SF-295 CNS,27.7 nM
same,TGI,SF-295 CNS,96.9 nM
same,GI50,HCT-15 colon,84.3 nM
same,TGI,HCT-15 colon,1310 nM
same,GI50,CCRF-CEM leukemia,38.1 nM
same,TGI,CCRF-CEM leukemia,138 nM
same,GI50,SN12C renal,12 nM
same,TGI,SN12C renal,41.6 nM
same,GI50,UACC-257 melanoma,19 nM
same,TGI,UACC-257 melanoma,99 nM
same,GI50,DU-145 prostate,< 10 nM
same,TGI,DU-145 prostate,22.4 nM
same,GI50,COLO 205 colon,< 10 nM
same,TGI,COLO 205 colon,< 10 nM
same,GI50,MOLT-4 leukemia,16.9 nM
same,TGI,MOLT-4 leukemia,33.7 nM
same,GI50,OVCAR-4 ovarian,17.4 nM
same,TGI,OVCAR-4 ovarian,359 nM
same,GI50,ACHN renal,128 nM
same,TGI,ACHN renal,2540 nM
same,GI50,OVCAR-8 ovarian,21.6 nM
same,TGI,OVCAR-8 ovarian,48.3 nM
same,GI50,MCF7 breast,13.2 nM
same,TGI,MCF7 breast,147 nM
same,GI50,T-47D breast,102 nM
same,TGI,T-47D breast,790 nM
same,GI50,A498 renal,50.8 nM
same,TGI,A498 renal,12700 nM
same,GI50,LOX IMVI melanoma,18.6 nM
same,TGI,LOX IMVI melanoma,33.4 nM
same,GI50,MDA-MB-231 breast,23.7 nM
same,TGI,MDA-MB-231 breast,68.1 nM
same,GI50,KM12 colon,15.2 nM
same,TGI,KM12 colon,86.4 nM
same,GI50,RPMI-8226 leukemia,16.1 nM
same,TGI,RPMI-8226 leukemia,35.4 nM
same,GI50,HOP-92 NSCLC,36.4 nM
same,TGI,HOP-92 NSCLC,137 nM
same,GI50,NCI-H23 lung,24.1 nM
same,TGI,NCI-H23 lung,67.8 nM
same,GI50,SNB-19 CNS,18.2 nM
same,TGI,SNB-19 CNS,2180 nM
same,GI50,786-0 renal,34.5 nM
same,TGI,786-0 renal,174 nM
